In patent publication US20200031866A1, “PEPTIDE INHIBITORS OF SODIUM CHANNELS” (SPYRYX BIOSCIENCES, INC., priority 2016, published 2020):
Read-outs that look alike come from different tables or passages of the source. Square brackets hold non-standard residues; d marks the D form. Peptide text beside a SMILES is read from it.

Tests used:
βENaC-Tg mice = type: in vivo
Source text: Like CF patients, βENaC-Tg mice are disease free at birth, but soon develop obstructive lung disease (Zhou, Z., et al. Am J Respir Crit Care Med 178, 1245-1256 (2008)). C57BL:FVB and C57BL:C3H mixed strains have 90% and 50% mortality, respectively, and the reproducibility of the disease on these backgrounds is sufficiently high that reliable data are produced with n of about 8-10 animals/group. Furthermore, the βENaC-Tg mouse responds to therapeutic interventions in a fashion similar to CF/COPD in humans, and the development of lung disease can be prevented following inhibition of lung disease at birth (Livraghi, A., et al. J Immunol 182, 4357-4367 (2009)). S18-derived peptides or vehicle were dosed one to three times a day by intranasal instillation (1 μl/g body weight) for 14 days in parallel cohorts of mice. Mice were weighed daily and, if a diuretic effect was found, the volume excreted was replaced by sub-cutaneous injections of sterile saline. At the end of the treatment, mice were sacrificed for phenotypic analysis.

[1] = biological target: T1, epithelial sodium channels (Homo sapiens, UniProt P37088+P51168+P51170); assay: Airway surface liquid hyper absorption in human bronchial epithelial cultures from CF patients; type: cell-based
T1 construct: human bronchial epithelial cultures from CF patients; endogenous in cells; host or cells: human bronchial epithelial cultures from CF patients
T1 sequence (P37088 1-669): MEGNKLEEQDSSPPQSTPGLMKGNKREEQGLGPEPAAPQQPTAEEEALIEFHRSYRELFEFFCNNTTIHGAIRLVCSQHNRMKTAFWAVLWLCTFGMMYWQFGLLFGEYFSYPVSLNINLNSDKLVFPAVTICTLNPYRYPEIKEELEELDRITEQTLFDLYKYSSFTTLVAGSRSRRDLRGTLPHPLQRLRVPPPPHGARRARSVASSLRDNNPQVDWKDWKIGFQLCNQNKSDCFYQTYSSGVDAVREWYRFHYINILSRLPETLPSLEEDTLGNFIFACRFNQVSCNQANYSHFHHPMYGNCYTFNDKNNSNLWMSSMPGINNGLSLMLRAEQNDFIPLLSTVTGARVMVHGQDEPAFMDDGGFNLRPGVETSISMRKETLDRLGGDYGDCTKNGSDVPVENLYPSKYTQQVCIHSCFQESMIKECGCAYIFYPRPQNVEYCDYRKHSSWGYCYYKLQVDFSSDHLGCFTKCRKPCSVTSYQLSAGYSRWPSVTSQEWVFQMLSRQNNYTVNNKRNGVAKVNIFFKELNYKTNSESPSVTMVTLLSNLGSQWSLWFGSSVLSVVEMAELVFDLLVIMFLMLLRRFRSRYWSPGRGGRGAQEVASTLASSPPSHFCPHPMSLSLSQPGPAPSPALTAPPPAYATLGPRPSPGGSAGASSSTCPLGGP
T1 sequence (P51168 1-640): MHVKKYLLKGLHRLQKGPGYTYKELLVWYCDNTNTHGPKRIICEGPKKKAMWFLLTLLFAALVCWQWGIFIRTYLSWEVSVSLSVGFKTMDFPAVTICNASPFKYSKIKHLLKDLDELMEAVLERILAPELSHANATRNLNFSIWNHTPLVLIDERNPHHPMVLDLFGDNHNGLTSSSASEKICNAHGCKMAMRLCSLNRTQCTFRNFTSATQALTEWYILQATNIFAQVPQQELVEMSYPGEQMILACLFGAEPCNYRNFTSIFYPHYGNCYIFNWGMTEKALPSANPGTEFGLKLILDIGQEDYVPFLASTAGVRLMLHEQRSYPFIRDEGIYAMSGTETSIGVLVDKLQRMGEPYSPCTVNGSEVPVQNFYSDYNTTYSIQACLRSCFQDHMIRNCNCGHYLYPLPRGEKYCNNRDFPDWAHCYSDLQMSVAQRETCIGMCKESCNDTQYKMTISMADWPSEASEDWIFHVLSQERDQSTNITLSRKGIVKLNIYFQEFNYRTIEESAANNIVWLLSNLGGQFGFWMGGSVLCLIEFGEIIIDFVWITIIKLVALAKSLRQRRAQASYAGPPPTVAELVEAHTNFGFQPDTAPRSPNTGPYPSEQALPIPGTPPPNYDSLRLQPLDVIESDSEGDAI
T1 sequence (P51170 1-649): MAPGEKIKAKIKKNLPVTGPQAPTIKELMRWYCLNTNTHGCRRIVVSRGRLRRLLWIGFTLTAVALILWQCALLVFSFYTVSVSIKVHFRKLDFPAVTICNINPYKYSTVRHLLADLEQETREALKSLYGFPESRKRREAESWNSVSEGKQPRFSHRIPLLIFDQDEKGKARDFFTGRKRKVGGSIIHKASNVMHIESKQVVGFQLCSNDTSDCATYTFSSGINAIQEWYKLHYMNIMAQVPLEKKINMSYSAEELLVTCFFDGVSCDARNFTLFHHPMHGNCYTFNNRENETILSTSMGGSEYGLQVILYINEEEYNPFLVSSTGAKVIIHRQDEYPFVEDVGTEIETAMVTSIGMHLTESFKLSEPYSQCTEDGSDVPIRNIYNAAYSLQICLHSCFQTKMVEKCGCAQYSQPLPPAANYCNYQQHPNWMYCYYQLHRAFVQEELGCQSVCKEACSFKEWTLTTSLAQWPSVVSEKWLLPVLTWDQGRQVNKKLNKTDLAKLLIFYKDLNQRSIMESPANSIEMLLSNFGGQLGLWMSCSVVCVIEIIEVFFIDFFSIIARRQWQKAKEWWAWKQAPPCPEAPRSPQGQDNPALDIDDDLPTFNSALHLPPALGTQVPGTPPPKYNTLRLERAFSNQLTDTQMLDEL

alpha-ENaC = biological target: T2, alpha-ENaC (Homo sapiens, UniProt P37088); assay: Internalization of alpha-ENaC in HEK293T cells, GFP-tagged alpha-ENaC co-expressed only with gamma ENaC and no beta-ENaC; type: cell-based; conditions: FIG. 6
T2 construct: expressed in transfected cells; host or cells: HEK293T
T2 sequence (P37088 1-669): T1 sequence (P37088 1-669)
Method: […] Am J Physiol Lung Cell Mol Physiol. 2013 December; 305(12):L990-L1001. doi: 10.1152/ajplung.00103.2013. Epub 2013 October; Garland et al. Proc Natl Acad Sci USA. 2013 Oct. 1; 110(40):15973-8. doi: 10.1073/pnas.1311999110. Epub 2013 Sep. 16.; Tan et al. J Physiol. 2014 Dec. 1; 592(Pt 23):5251-68). Twenty-four hours later, peptide or vehicle control were added at t=0 and fluorescence was read using a Tecan M1000 plate reader 3 h later. Fluorescence was read at 488 nm (excitation)/510 nm (emission).

With `CC[C@H](C)[C@H](NC(=O)[C@@H]1CCCN1C(=O)[C@H](CC(C)C)NC(=O)[C@@H](C)NC(=O)[C@@H](C)N)C(=O)N1CCC[C@H]1C(=O)N[C@@H](CC(C)C)C(=O)N[C@@H](CC(=O)O)C(=O)N[C@@H](CCC(N)=O)C(=O)N[C@H](C(=O)N[C@H](C)C(=O)N[C@H](C)C(N)=O)[C@@H](C)O` [SEQ ID NO:128, aaLPIPLDQTaa] (H-[dA][dA]LPIPLDQT[dA][dA]-NH2) the percent survival (βENaC-Tg mice; βENaC-Tg C57BL:C3H mice, fourteen-day treatment, FIGS. 7C, 7D, 7F) was “increased percent survival”, the percent survival (βENaC-Tg mice; βENaC-Tg C57BL:C3H mice, once daily dosing, FIG. 7E left panel) was “increased percent survival” and the percent survival (βENaC-Tg mice; βENaC-Tg C57BL:FVB mice, fourteen-day inhaled treatment, FIG. 7B) was “more effective than inhaled SEQ ID NO:142 at increasing percent survival”. The “duration of prevention of airway surface liquid hyper absorption following a single dose” value [1] was over 8 h and the “effect on alpha-ENaC” value (alpha-ENaC) was “no effect”.
